From article PMC12154458, “High-Throughput Screens of Repurposing Hub and DOS Chemical Libraries Reveal Compounds with Novel and Potent Inhibitory Activity Against the Essential Non-Neuronal Acetylcholinesterase of Schistosoma mansoni (SmTAChE)” (International Journal of Molecular Sciences, 2025)
pIC50: −log10 of the molar value. Where two headings read alike, the source gives them in different places.

Tests used:
[1] = target: T1, rSmTAChE (Schistosoma mansoni, UniProt A0A3Q0KMM5); assay: biochemical
[2] = target: T1, rSmTAChE; assay type: biochemical; details: for pIC50: read-out: qAC50 (IC50), rSmTAChE
[3] = target: recombinant human acetylcholinesterase, rHsAChE (Homo sapiens, UniProt P22303); assay: biochemical
[4] = read-out: rSmTAChE HTS Inhibition (Ave, %)
[5] = dose response analysis of Drug Repurposing Hub hits against rHsAChE
[6] = read-out: qAC50 (IC50), rHsAChE
[7] = read-out: HTS/rSmTAChE Inhibition (Ave, %)
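Wherever Inhibition (%) (Average) is given: mostly 20 µM final but a few compounds at 5 or 10 µM.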
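Wherever Inhibition (%) Replicate A is given: mostly 20 µM final but a few compounds at 5 or 10 µM.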
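Wherever Inhibition (%) Replicate B is given: mostly 20 µM final but a few compounds at 5 or 10 µM.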

T1 sequence (A0A3Q0KMM5 27-661 limits assumed): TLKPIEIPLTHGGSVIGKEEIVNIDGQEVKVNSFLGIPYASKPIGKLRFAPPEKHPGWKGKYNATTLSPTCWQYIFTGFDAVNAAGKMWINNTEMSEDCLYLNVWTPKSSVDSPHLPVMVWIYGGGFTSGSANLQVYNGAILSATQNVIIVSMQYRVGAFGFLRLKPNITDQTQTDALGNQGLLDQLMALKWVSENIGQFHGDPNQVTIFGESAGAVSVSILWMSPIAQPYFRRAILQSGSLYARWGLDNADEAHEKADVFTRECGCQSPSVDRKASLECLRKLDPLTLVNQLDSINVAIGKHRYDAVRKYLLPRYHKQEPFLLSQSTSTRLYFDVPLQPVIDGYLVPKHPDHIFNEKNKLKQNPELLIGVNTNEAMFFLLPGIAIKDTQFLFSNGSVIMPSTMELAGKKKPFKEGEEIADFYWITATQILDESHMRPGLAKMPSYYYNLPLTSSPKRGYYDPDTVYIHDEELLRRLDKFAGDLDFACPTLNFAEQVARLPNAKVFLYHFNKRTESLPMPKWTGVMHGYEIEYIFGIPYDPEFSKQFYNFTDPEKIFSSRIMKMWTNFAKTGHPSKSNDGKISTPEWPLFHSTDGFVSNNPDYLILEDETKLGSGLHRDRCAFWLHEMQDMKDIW
recombinant human acetylcholinesterase, rHsAChE, sequence (P22303 32-614): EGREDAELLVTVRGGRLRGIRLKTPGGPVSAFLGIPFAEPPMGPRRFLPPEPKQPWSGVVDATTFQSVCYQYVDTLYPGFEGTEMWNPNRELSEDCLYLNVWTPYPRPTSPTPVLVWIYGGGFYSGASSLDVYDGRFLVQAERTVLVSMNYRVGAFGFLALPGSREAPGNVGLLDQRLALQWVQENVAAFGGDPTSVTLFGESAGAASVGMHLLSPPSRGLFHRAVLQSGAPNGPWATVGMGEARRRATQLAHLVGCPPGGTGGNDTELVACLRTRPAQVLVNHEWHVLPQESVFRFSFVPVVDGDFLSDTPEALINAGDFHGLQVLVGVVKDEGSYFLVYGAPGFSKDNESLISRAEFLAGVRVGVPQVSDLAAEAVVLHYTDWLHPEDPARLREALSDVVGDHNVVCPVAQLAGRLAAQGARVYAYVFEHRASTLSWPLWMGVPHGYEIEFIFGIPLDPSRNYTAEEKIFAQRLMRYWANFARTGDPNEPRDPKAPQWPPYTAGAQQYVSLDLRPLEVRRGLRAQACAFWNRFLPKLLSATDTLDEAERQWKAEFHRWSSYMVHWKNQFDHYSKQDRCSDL

SMILES | Inhibition (%) (Average) [1] | Inhibition (%) Replicate A [1] | Inhibition (%) Replicate B [1] | Data Mode (curve class), rSmTAChE [2] | Data Mode (curve class), rHsAChE [3] | further results
O=C(O)CCc1cc(C(=O)c2ccc(OC3CCCC3)cc2O)ccc1OCc1ccc2c(=O)[nH]oc2c1 [BRD-K84925803-001-01-9] | 87.31% | 83.68% | 90.95% | decreasing (weakly active) | inactive | pIC50 [2]: < 4.42
CC1CCCCOC(CN(C)C(=O)Nc2cccc3ccccc23)C(C)CN(C(C)CO)C(=O)c2cc(N(C)C)ccc2O1 (stereo not shown) [BRD-K85440939-001-01-5] |  |  |  |  |  | inhibition at 20 µM [1, 4]: 63.9%; rSmTAChE Data Mode [2]: decreasing; IC50 (µM) rHsAChE ([3]; Table 2, DOS-A library, Inactive = inactive at the maximum tested concentration (40 µM)): Inactive *
COc1ccc(/C=C/CCCCOc2ccc(C(=O)c3cccc(C(=O)O)c3)cc2CCC(=O)O)cc1 [LY223982, reference compound] |  | 83.69% | 77.36% | decreasing | decreasing | rSmTAChE HTS Inhibition (Ave, %) ([1]; 20 µM): 80.52%; IC50 ([2]; read-out: IC50 (µM) rSmTAChE): 15.2 µM; SI (Sm/Hs) [3]: 2.1; IC50 ([3]; read-out: IC50 (µM) rHsAChE): 7.22 µM
CC(C)n1cnc2c(NCCc3ccc(O)cc3)nc(-c3csc4ccccc34)nc21 [BRD-K36739687-001-03-0] | 68.06% | 70.28% | 65.85% | inactive | inactive | 
CCc1c(C(=O)NCCc2ccc(N3CCCCC3)cc2)[nH]c2ccc(Cl)cc12 [BRD-K57597776-001-01-2] | 61.28% | 60.33% | 62.24% | inactive | inactive | 
CCCCC(CC)CCC(CC(C)C)OS(=O)(=O)O (stereo not shown) [Sodium-tetradecyl-sulfate, reference compound] |  |  |  | decreasing |  | inhibition at 20 µM [1, 4]: 74.7%; SI (Sm/Hs) [3]: 2.01; IC50 ([3]; Table 3, read-out: IC50 (µM) rHsAChE): 5.66 µM; Data Mode (curve class), rHsAChE [3, 5]: decreasing
C[C@H](CO)N1C[C@H](C)[C@@H](CN(C)C(=O)Nc2cc(F)ccc2F)Oc2cc(-c3cccc(C#N)c3)ccc2S1(=O)=O [BRD-K72311435-001-01-2] | 61.10% | 61.21% | 60.99% |  |  | rSmTAChE Data Mode [2]: inactive; rHsAChE Data Mode [3]: decreasing (weakly active)
CC(C)=CCC/C(C)=C/CC/C(C)=C/CSc1ccccc1C(=O)O [BRD-K98453471-001-01-7] | 76.52% | 77.70% | 75.33% | decreasing | decreasing | pIC50 [2]: 4.94; pIC50 [3, 6]: 4.86
O=C(O)c1ccc(-c2c[nH]c3ncc(-c4ccccc4)cc23)cc1C1CCCC1 [GSK-650394, reference compound] |  |  |  | decreasing |  | inhibition at 10 µM [1, 7]: 75.4%; SI (Hs/Sm) [2]: 3.46; IC50 ([3]; IC50 (µM) rHsAChE): 8.1 µM; Data Mode (curve class), rHsAChE [3, 5]: decreasing; pIC50 ([3]; qAC50 (IC50), rHsAChE): 5.09
O=C(Nc1ccccc1Br)N[C@@H]1CCN(c2ccc(C(F)(F)F)cn2)C1 [BRD-K65991129-001-02-9] | 65.52% | 67.06% | 63.99% | inactive | inactive | 
CCc1nc(-c2cccc(C)c2)c(-c2ccnc(NC(=O)c3ccccc3)c2)s1 [BRD-K52751261-001-08-7] | 70.66% | 75.76% | 65.56% | inactive | decreasing (weakly active) | pIC50 [3, 6]: < 5.17
Cc1cn2nc([C@@H]3CCCCN3C(=O)c3cc(Cl)ccc3NS(C)(=O)=O)cc2nc1N1CC[C@H](N)C1 [Presatovir, reference compound] |  |  |  | decreasing |  | inhibition at 20 µM [1, 7]: 66.9%; Data Mode (curve class), rHsAChE [3, 5]: decreasing (weakly active)
CCCC(=O)Nc1ccc2c(c1)OC[C@@H](C)N(Cc1cc(-c3ccccc3)on1)C[C@@H](C)[C@H](OC)CN(C)C2=O [BRD-K35965314-001-01-7] | 67.01% | 68.51% | 65.51% |  |  | rSmTAChE Data Mode [2]: inactive; rHsAChE Data Mode [3]: inactive
CCOC(=O)N1c2ccc(C(F)(F)F)cc2[C@@H](N(Cc2cc(C(F)(F)F)cc(C(F)(F)F)c2)C(=O)OC)C[C@H]1CC [BRD-K55675242-001-03-0] | 71.11% | 72.88% | 69.34% | inactive | decreasing (weakly active) | pIC50 [3, 6]: < 4.42
COc1ccc(C#Cc2ccc3c(c2)O[C@H](CN(C)S(=O)(=O)c2ccccc2F)[C@@H](C)CN([C@H](C)CO)S3(=O)=O)cc1 [BRD-K53241408-001-01-7] | 74.07% | 75.51% | 72.63% |  |  | rSmTAChE Data Mode [2]: inactive; rHsAChE Data Mode [3]: inactive
COc1cccc(C#Cc2ccc([C@H]3[C@@H](C#N)N(C(=O)c4ccccn4)[C@@H]3CO)cc2)c1 [BRD-K61082257-001-01-7] | 66.17% | 65.93% | 66.40% |  |  | rSmTAChE Data Mode [2]: decreasing (weakly active); rHsAChE Data Mode [3]: inactive
Cc1cc(Oc2ccc3nc(COc4ccc(CC5SC(=O)NC5=O)cc4)n(C)c3c2)cc(C)c1N (stereo not shown) [BRD-A24560335-300-01-2] | 64.01% | 61.34% | 66.67% | decreasing (weakly active) | inactive | pIC50 [2]: < 4.42
